Values quoted from earlier work, collected in patent publication US20120046368A1, “METHOD FOR PURIFYING 3,4-DIHYDROXYPHENYLGLYCOL (DHPG) FROM PLANT PRODUCTS” (CONSEJO SUPERIOR DE INVESTIGACIONES CIENTIFICAS, priority 2008, published 2012).

Tests used:
[1] = fold greater than ascorbic acid or HT
[2] = compared with HT

OCC(O)c1ccc(O)c(O)c1 (centres unmarked) [DHPG, 3,4-dihydroxyphenylglycol]
antioxidant efficacy in water relative to ascorbic acid or HT [1]: 2-3 times | antioxidant efficacy in a lipid medium relative to HT [2]: twice that of HT
